We go through one substance from US10232023B2, “Methods for treatment of and prophylaxis against inflammatory disorders” (THE UNIVERSITY OF UTAH RESEARCH FOUNDATION, priority 2013, dated 2019).

For assay [1], the system named is LPS-stimulated human PMNs. The assay can be described thus: Reactive oxygen species generation, dihydrorhodamine assay. The conditions noted are these: 1 nM, 1 hour pre-incubation; LPS 100 ng/mL. The assay is classed as cell-based. Here is the method: Human PMNs isolated from healthy adult whole blood were resuspended to a concentration of 2×10^6 cells/mL in M-199 media and pre-incubated±[…] (1 nM) or SCR (1 nM) peptide for 1 hour under standard conditions. The PMNs were then stimulated with LPS (100 ng/mL) for 1 hour, washed, and resuspended with a dihydrorhodamine (7.25 mM; D-632, MOLECULAR PROBES) and catalase (1000 Units/mL; C-40, SIGMA) mixture and incubated at 37° C. for 10 minutes. After incubation, samples were placed at 4° C. and analyzed for ROS-dependent fluorescence using a BECTON-DICKINSON FACSCAN device equipped with CELLQUEST software.

In assay [2] the test system is Outbred Swiss-Webster mice, E. coli peritonitis. As to the kind of experiment: Murine E. coli peritonitis: peritoneal fluid and membrane analysis. It counts as in vivo, mouse. Here is the method:
Outbred Swiss-Webster mice were injected intraperitoneally with 4.5×10^7 colony-forming units (cfu) of E. coli±nNIF, CRISPP, or scrambled control peptide (SCR) (10 mg/kg, IP injection) one hour prior to E. coli infection. At the 3 hour time point after infection, 3 mice were sacrificed and the peritoneal fluid and peritoneal tissue were collected and analyzed for leukocyte accumulation, bacteriology, and in vivo NET formation. […] See Fuchs et al., J Cell Biol, 2007, 176: 231-241. The number of E. coli cfu/mL of peritoneal fluid in CRISPP pretreated mice was also determined compared to SCR mice (see FIG. 17C).
Animals were treated with CRISPP (10 mg/kg), nNIF (10 mg/kg), or SCR (10 mg/kg) by i.p. injection 1 hour prior to infection (E. coli, 4.5×10^7 cfu/mouse, i.p. injection) or stimulation (LPS, 25 mg/kg, i.p. injection (SIGMA)). Control mice were injected with saline alone. The mice were sacrificed in a CO2 chamber 3 hours post-infection/stimulation with the peritoneal contents harvested and analyzed. Briefly, the skin of the abdomen was cut open in the midline after thorough disinfection and without injuring the muscle. The peritoneal cavity was lavaged with sterile saline solution ([…]) and analyzed for in vivo NET formation, bacteriology, and leukocyte accumulation. NETs in the peritoneal fluid were qualitatively and quantitatively analyzed using live cell imaging with confocal microscopy and histone release assays. NETs on the inner surface of the peritoneal membrane were assessed quantitatively using live cell imaging followed by standardized grid analysis of 5 randomly selected high power visual fields per tissue sample (IMAGE-J software, NIH). Peritoneal bacterial colony forming units (cfu) counts were quantified by permeabilizing all recovered leukocytes with 0.1% Triton-X 100 for 10 minutes and performing serial dilutions and bacterial cultures on 5% sheep blood agar plates (HARDY DIAGNOSTICS). After a 24-hour incubation, bacterial counts were determined. Total leukocyte counts in the peritoneal lavage were determined in Neubauer chambers using an optical microscope after dilution in Turk's solution (2% acetic acid). Differential leukocyte analysis was performed using a 60× oil immersion objective to assess morphology of cyto-centrifuged cells stained with May-Grunwald-Giemsa dye.

The subject of assay [3] is human PMNs incubated with live S. aureus. The assay can be described thus: NET formation by human PMNs incubated with live S. aureus. It counts as cell-based. The conditions noted are these: pretreatment 1 nM; live S. aureus (MOI 100). Here is the method: A human histone H3 release assay was used to quantify NET formation (n=2). NET-inhibitory activity of CRISPP was tested using in vitro models of two human infectious diseases: Staphylococcus aureus bacteremia and dengue fever.
Qualitative assessment of NET formation was performed as previously referenced in Yost et al., Blood, 2009, 113: 6419-6427 and McInturff et al., Blood, 2012, 120: 3118-3125. Briefly, primary PMNs isolated from preterm infants, healthy term infants, and healthy adults (2×10^6 cells/mL) were incubated with control buffer or stimulated with LPS (100 ng/mL), PMA (20 nM), or S. aureus bacteria (MOI 100) for 1 hour at 37° C. in 5% CO2/95% air on glass coverslips coated with poly-L-lysine. For selected experiments, primary PMNs were pre-incubated with autologous plasma, cord blood plasma, nNIF (1 nM), CRISPP (1 nM), or SCR (1 nM) for 1 hour prior to imaging. After pre-incubation and/or stimulation, PMNs were gently washed with PBS and incubated with a mixture of cell permeable (SYTO Green, MOLECULAR PROBES) and impermeable (SYTOX Orange, MOLECULAR PROBES) DNA fluorescent dyes. Confocal microscopy was accomplished using a FV300 1×81 Microscope and FLUOVIEW software (OLYMPUS). Both 20× and 60× objectives were used. […]
Supernatant total histone H3 content was determined as previously referenced in McInturff et al., Blood, 2012, 120: 3118-3125. […]

Where [4] appears, read: 10 mg/kg IP pretreatment, vs SCR control.

Entries after “also recorded” stand apart in the source; their conditions may differ.

On to “Cancer-Associated SCM-Recognition, Immune Defense Suppression, and Serine Protease Protection Peptide [CRISPP, nNIF-related peptide (nNRP)]”, for which the “Reactive oxygen species generation” value in assay [1] was “did not significantly inhibit”. In addition, in assay [2] (10 mg/kg IP one hour prior to E. coli, 3 hours after infection, vs E. coli alone or SCR), the “Peritoneal PMN accumulation” value is on record as “significant increase”. The “Peritoneal fluid bacterial concentration (E. coli cfu/mL)” value in assay [2] (10 mg/kg IP one hour prior to E. coli, 3 hours after infection, vs SCR) is “significant increase”. Besides, in assay [2] (setting [4]), the “NET formation by histone H3 release assay of the peritoneal fluid” value is reported as “significant quantitative decrease” and the “NET formation in the peritoneal fluid (live cell imaging)” value is “qualitative decrease”. In addition, the “Peritoneal membrane-associated NET formation” value in assay [2] (freshly resected peritoneal membrane, live cell imaging, standardized grid) was “qualitative and quantitative decrease”. Also, in assay [3], the “NET formation induced by S. aureus” value is on record as “completely blocked NET formation; also recorded: inhibited NET formation”.
